Experimental data taken from US20230414564A1, “BLUE LIGHT OXIDATION INHIBITOR AND SCREENING METHOD FOR SAME” (SHISEIDO COMPANY, LTD., priority 2020, published 2023).
“Also recorded” adds a separate entry of the source.

Experiments:
[1] = DPPH radical scavenging rate (DPPH Antioxidant Assay Kit); details: 5 wt %, 1 wt % and 0.2 wt % aqueous solutions; 30 minutes at 25° C.; absorbance at 517 nm
Excerpt: Methods for measuring oxidation inhibiting effects by radical scavenging rate evaluation are known. The present inventors therefore examined oxidation inhibiting effects of the aforementioned candidate substances at different concentrations, by the following procedure using a DPPH Antioxidant Assay Kit (Dojindo Laboratories).
The candidate substances of Example 1 were used as 5 wt %, 1 wt % and 0.2 wt % aqueous solutions. Blank 1, Blank 2, Sample and Sample Blank Solution listed in Table 3 were prepared by the manufacturer's protocol described in general below, and the radical scavenging rates were calculated.
• 1. Each candidate substance was loaded into a 96 well plate as a 5 wt %, 1 wt % or 0.2 wt % aqueous solution. • 2. Water was added to Blank 1 and Blank 2 at 20 μl each. • 3. Assay Buffer was added at 80 μl to each well. • 4. After adding 100 μl of ethanol to Blank 2 and the Sample blank, it was thoroughly mixed by pipetting. • After adding 100 μl of DPPH working solution to the sample and Blank1, it was thoroughly mixed by pipetting. • 6. The plate was incubated for 30 minutes at 25° C. in a dark environment. • 7. The absorbance at 517 nm was measured with a plate reader (Spectramax 250, Molecular Devices). • 8. The radical scavenging rate (%) of each sample was calculated by the following formula 3.
Radical scavenging rate (%)=[…]×100 Formula 3:
(ACS=Blank1−Blank2, AS=Sample−Sample Blank)

[2] = UPE count method (in vitro), linoleic acid mixture irradiated with blue light or UVA; details: for blue light oxidation-inhibiting effect (rate of change in blue light-induced UPE): 5 wt % aqueous solution of candidate in linoleic acid mixture, blue light 430 nm LED 6 mW/cm^2, 10 minutes, UPE integrated for 300 seconds; for inhibiting effect against blue light oxidation compared with inhibiting effect against oxidation by UVA (UPE): linoleic acid mixture, blue light 430 nm vs UVA 300 to 400 nm
Protocol: The candidate substances listed in Table 1 were added to ultrapure water to prepare 5 wt % aqueous solutions as samples.
The samples were prepared by mixing the substances in the following compositions with linoleic acid and oleic acid as biological components. As a control, ultrapure water was used instead of a 5% aqueous solution of the candidate substance.
A 2 mL portion of the sample prepared by the method described above was added to a plastic container and irradiated with 6 mW/cm^2 blue light (430 nm LED, CL-H1-430-9-1, Asahi Spectra Co., Ltd.) using an LED light source (CL-1501, Asahi Spectra Co., Ltd.), for a period of 10 minutes. The experiment was conducted while shielded, to exclude the effects of light of other wavelengths. For the control, ultrapure water was added instead of the starting material aqueous solution.
The irradiated sample was transferred to a quartz glass container and set in the black box of a photon counter (Tohoku Electronic Industrial Co.). Photon counting of UPE was initiated one minute after irradiation was complete. UPE was detected by a built-in photomultiplier tube (PMT, R2257P, Hamamatsu Photonics, K.K.) in the photon counter, with measurement being conducted while shielded.
The integrated value of UPE intensity for 300 seconds after the start of UPE measurement was determined and the rate of change in UPE was calculated by formula 2, to evaluate the oxidative stress inhibiting effect.
Rate of change in UPE=(UPE intensity of material added sample−UPE intensity of control sample (non-irradiated))−(UPE intensity of control sample−UPE intensity of control sample (non-irradiated)) Formula 2: […]

[3] = as above; details: 5 wt % aqueous solution in linoleic acid mixture; UVA lamp 300 to 400 nm 3.5 mW/cm^2
human skin tissue = assay: Measurement of oxidative stress by UPE imaging on human skin tissue; details: 20 μL of 5% aqueous solution on stratum corneum side, 40 minutes; blue light 430 nm 6 mW/cm^2, 10 minutes
Protocol: A 20 μL aqueous solution of 5% hypotaurine was applied to the center of the stratum corneum side of human skin tissue (KAC Co., dorsal region), and allowed to stand for 40 minutes while shielded.
After irradiation with blue light (430 nm LED, 6 mW/cm^2) for 10 minutes, the hypotaurine aqueous solution was wiped off and immediately observed by UPE imaging using a high-sensitivity cooled CCD camera (850S CCD42-40, Spectral Instruments Inc.), while shielded (photographing time: 10 minutes).

Row | Compound | DPPH radical scavenging power (radical scavenging rate) [1] | blue light oxidation-inhibiting effect (rate of change in blue light-induced UPE) [2] | blue light oxidation-inhibiting effect (rate of change in blue light-induced UPE) ([2]; listed as ascorbic acid glucoside) | blue light oxidation-inhibiting effect (rate of change in blue light-induced UPE) ([2]; listed as cysteine) | UV oxidation inhibiting effect (rate of change in UV light-induced UPE) [3] | UPE intensity after blue light irradiation (UPE imaging) (human skin tissue) | inhibiting effect against blue light oxidation compared with inhibiting effect against oxidation by UVA (UPE) [2]
1 | O=C1O[C@H]([C@@H](O)CO)C(O)=C1O [L(+)-ascorbic acid, L(+)-Ascorbic acid] | high radical scavenging power | high blue light oxidation-inhibiting effect; also recorded: excellent blue light oxidation-inhibiting effects |  |  |  |  | 
2 | O=C1O[C@H]([C@@H](O)CO)C(O)=C1O[C@H]1O[C@H](CO)[C@@H](O)[C@H](O)[C@H]1O [L-ascorbic acid glucoside, L-Ascorbic acid glucoside, reference compound] | high radical scavenging power | not found to have significant blue light oxidation-inhibiting effects | little of the blue light oxidation-inhibiting effect |  |  |  | 
3 | N[C@@H](CS)C(=O)O [L-cysteine, L-Cysteine, reference compound] | high radical scavenging power | not found to have significant blue light oxidation-inhibiting effects |  | little of the inhibiting effect against blue light oxidation |  |  | 
4 | CC(C)(CO)[C@@H](O)C(=O)NCCC(=O)NCCSS(=O)(=O)[O-].CC(C)(CO)[C@@H](O)C(=O)NCCC(=O)NCCSS(=O)(=O)[O-].[Ca+2] [calcium pantetheine-S-sulfonate] | High radical scavenging power was not observed | high blue light oxidation-inhibiting effect; also recorded: excellent blue light oxidation-inhibiting effects |  |  | UV oxidation inhibiting effect was found |  | 
5 | NCCS(=O)O [hypotaurine, Hypotaurine] | high radical scavenging power | high inhibiting effect against blue light oxidation; also recorded: excellent blue light oxidation-inhibiting effects |  |  |  | lowered | higher than the inhibiting effect against oxidation by UVA
6 | NCCS(=O)(O)=S [thiotaurine, Thiotaurine] | High radical scavenging power was not observed | high inhibiting effect against blue light oxidation; also recorded: excellent blue light oxidation-inhibiting effects |  |  |  |  | higher than the inhibiting effect against oxidation by UVA
